Test results published in patent US20040259925A1, “Pharmaceutical compositions and methds for the prevention or treatment of cardiovascular, cardiopulmonary, pulmonary or renal diseases” (Boehringer Ingelheim Pharma GmbH & Co. KG, priority 2003, published 2004).

Legend:
[1] = Dissolution of active substances from Tablet 3; assay type: physicochemical
Excerpt: This combination of active substances and excipients was then compressed with a suitable tablet press (e.g. Korsch EK0 or Fette P1200) to form tablets.

[2] = molecular target: T1, human PPARgamma-ligand binding domain (LBD) (Homo sapiens, UniProt P37231); assay: AlphaScreen: recruiting of biotinylated LXXLL peptide of cofactor CBP by GST-PPARgamma-LBD; assay type: biochemical; settings: for direct activation of the PPARgamma-LBD / recruiting of the LXXLL peptide: concentrations of up to 50 μM; for MW (AlphaScreen signal): 4 hours
T1 construct: codes for the amino acids 205-505 of the human PPARgamma2 transcription factor; made in house; host or cells: E. coli BL21(DE3), vector pGEX-4T-1
T1 sequence (P37231 205-505): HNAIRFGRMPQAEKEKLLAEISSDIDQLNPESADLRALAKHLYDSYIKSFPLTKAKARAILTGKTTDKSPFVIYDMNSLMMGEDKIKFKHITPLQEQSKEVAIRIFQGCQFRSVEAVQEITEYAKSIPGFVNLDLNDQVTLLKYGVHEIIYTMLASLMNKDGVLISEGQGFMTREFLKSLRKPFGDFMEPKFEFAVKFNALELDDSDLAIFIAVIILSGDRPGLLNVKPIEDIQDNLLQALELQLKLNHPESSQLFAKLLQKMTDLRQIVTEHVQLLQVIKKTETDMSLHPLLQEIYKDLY
Description: Protein containing the human PPARgamma-ligand binding domain (LBD) was prepared as a GST fusion protein in E. coli and purified by affinity chromatography. […] The fusion protein was expressed in the E. coli strain BL21(DE3) recommended for pGEX vectors after induction with 0.2 mM IPTG for 4 hours at 25° C. The bacteria were pelleted after the induction and frozen in batches in PBS, pH 7.4. After opening up in a French Press, the dissolved GST-PPARgamma-LBD-fusion protein was purified using a GSTrap column (Pharmacia). Elution was carried out by the addition of 20 mM reduced glutathione. The GST-PPARgamma-LBD-protein fractions were desalinated using a HiTrap desalting column (Pharmacia) and the protein concentration was determined using a standard assay.
The assay buffer consisted of 25mM Hepes pH7.4, 100 mM NaCl, 1 mM DTT, 0.1% Tween-20, 0.1% BSA. […] The final DMSO concentration in the assay was 1% (v/v). A 1% DMSO solution was used as the background control (NSB). The measurement was done using a Packard fusion measuring device.

[3] = molecular target: T2, ligand binding domain of the human PPARgamma2 transcription factor fused to yeast GAL4 DNA binding domain (Homo sapiens, UniProt P37231); assay: Luciferase activity in stably transformed PPARgamma reporter cell line (CHO-K1 clone 11); assay type: cell-based; settings: for MW (luciferase activity): 24 hours
T2 construct: codes for amino acids 205-505 of the human PPARgamma2 transcription factor; expressed in transfected cells
T2 sequence (P37231 205-505): T1 sequence (P37231 205-505)
Excerpt: The cells used are CHO cells which are the result of transformation with two gene constructs.
The resulting plasmid pFA-CMV/hPPARgamma2-LBD codes N-terminally of the PPARgamma-LBD in the same reading frame for a Gal4 DNA binding domain. In addition the plasmid codes for neomycin resistance.
The cell line CHO-K1 (ATCC CCL-61) was cotransfected with the plasmids pFA-CMV/hPPARgamma2-LBD and pFR-Luc (Stratagene). pFR-Luc codes for the luciferase gene under the control of a five-times repeated yeast Gal4 binding site. The transfection was carried out with lipofectamine2000 in accordance with the manufacturer's instructions.
After six days' cultivation the cells were passaged and kept in culture for another 10 days. The resulting neomycin-resistant colonies were picked out under the microscope and transferred into 96 well dishes and cultured.
The test substances were brought to 100 times the desired concentration with a suitable solvent, e.g. DMSO, and diluted 1:100 with the medium placed in the cell culture plate. The solvent used, e.g. DMSO, was used as the background control in the same concentration.
Luminescence was measured after a five minute wait using a Packard TopCount NXT. The luciferase activity was obtained by integrating the relative luciferase units (RLU) of the first ten seconds after the start of measurement.

[4] = molecular target: T3, human PPARgamma-ligand binding domain (LBD) (Homo sapiens, UniProt P37231); assay: SPA assay: displacement of 3H-labelled rosiglitazone from GST-PPARgamma-LBD; settings: for MW (SPA signal, bound 3H-rosiglitazone): 30 nM 3H-rosiglitazone, NSB 217, Bmax 911; for displacement of the radioactive rosiglitazone from the binding pocket: very large excesses of test substance
T3 sequence (P37231 205-505): T1 sequence (P37231 205-505)
T3 sequence (P19793 220-461 partner): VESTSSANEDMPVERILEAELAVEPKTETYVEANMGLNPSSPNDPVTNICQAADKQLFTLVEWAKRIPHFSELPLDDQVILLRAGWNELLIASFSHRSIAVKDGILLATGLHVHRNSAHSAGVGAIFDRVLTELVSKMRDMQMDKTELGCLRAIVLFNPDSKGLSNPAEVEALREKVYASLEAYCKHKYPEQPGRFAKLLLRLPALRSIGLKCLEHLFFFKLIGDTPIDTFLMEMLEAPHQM
Description: Protein containing the human PPARgamma-ligand binding domain (LBD) was prepared as a GST fusion protein in E. coli and purified by affinity chromatography. To do this, a DNA section which codes for the amino acids 205-505 of the human PPARgamma2 transcription factor (cf. Genbank entry U79012) was subcloned via the additionally inserted restriction cutting sites BamH I and Xho I into the expression vector pGEX-4T-1 (Amersham) and the sequence of the section was monitored. […] The bacteria were pelleted after the induction and frozen in batches in PBS, pH 7.4. After opening up in a French Press, the dissolved GST-PPARgamma-LBD-fusion protein was purified using a GSTrap column (Pharmacia). Elution was carried out by the addition of 20 mM reduced glutathione. The GST-PPARgamma-LBD-protein fractions were desalinated using a HiTrap desalting column (Pharmacia) and the protein concentration was determined using a standard assay. Protein containing the human RXRalpha ligand binding domain (LBD) was prepared as a His tag fusion protein in E. coli and purified by affinity chromatography. To do this a DNA section which codes for the amino acids 220-461 of the human RXRalpha transcription factor (cf. Genbank entry NM_002957, nt 729-1457) was subcloned via the additionally introduced restriction cutting sites BamH I and Not I into the expression vector pET28c (Novagen) and the sequence of the section was monitored. […] The bacteria were pelleted after the expression and frozen in batches in PBS, pH 7.4. After opening up in a French Press, the dissolved His-RXRalpha-LBD-fusion protein is purified using a HiTrap chelating column (Pharmacia). Elution was carried out using a 500 mM imidazole step. The His-RXRalpha-LBD protein fractions were desalinated using a HiTrap desalting column (Pharmacia) and the protein concentration was determined using a standard assay. A description of the SPA assay format can be found in Mukherjee R et al., J Steroid Biochem Mol Biol (2002) 81:217-225. The assay buffer consisted of 20 mM Tris pH 7.5, 25 mM KCl, 10 mM DTT, 0.2% Triton X-100).

## NS(=O)(=O)c1cc2c(cc1Cl)NCNS2(=O)=O [hydrochlorothiazide]
[1]; Tablet 3, first batch, 900 ml 0.1 M HCl, 100 rpm
  dissolved after 30 minutes: 69±6.3%
[1]; Tablet 3, second batch, 900 ml 0.1 M HCl, 100 rpm
  dissolved after 30 minutes: 72±2.1%
[1]; Tablet 3, third batch, 900 ml 0.1 M HCl, 100 rpm
  dissolved after 30 minutes: 78±1.8%

## CCCCC1=NC2(CCCC2)C(=O)N1Cc1ccc(-c2ccccc2-c2nnn[nH]2)cc1 [irbesartan]
[2]
  direct activation of the PPARgamma-LBD / recruiting of the LXXLL peptide: did not result in any direct activation of the PPARgamma-LBD
[3]
  activation of the PPARgamma pathway in the PPARgamma reporter cell line: only at higher test concentrations and to a lesser extent
[3]; test substance 1.00E−04 M
  MW (luciferase activity): 29600 RLU
[3]; test substance 1.00E−05 M
  MW (luciferase activity): 3292 RLU
[3]; test substance 1.00E−06 M
  MW (luciferase activity): 657 RLU
[3]; test substance 3.00E−05 M
  MW (luciferase activity): 22133 RLU
[3]; test substance 3.00E−06 M
  MW (luciferase activity): 1028 RLU
[3]; test substance 3.00E−07 M
  MW (luciferase activity): 491 RLU
[4]; test substance 1.00E−04 M
  MW (SPA signal, bound 3H-rosiglitazone): 510
[4]; test substance 1.00E−05 M
  MW (SPA signal, bound 3H-rosiglitazone): 723
[4]; test substance 1.00E−06 M
  MW (SPA signal, bound 3H-rosiglitazone): 815
[4]; test substance 1.00E−07 M
  MW (SPA signal, bound 3H-rosiglitazone): 913
[4]; test substance 3.00E−05 M
  MW (SPA signal, bound 3H-rosiglitazone): 648
[4]; test substance 3.00E−06 M
  MW (SPA signal, bound 3H-rosiglitazone): 779
[4]; test substance 3.00E−07 M
  MW (SPA signal, bound 3H-rosiglitazone): 810
[4]
  displacement of the radioactive rosiglitazone from the binding pocket: no concentration-dependent displacement

## CCCCc1nc(Cl)c(CO)n1Cc1ccc(-c2ccccc2-c2nn[nH]n2)cc1 [losartan]
[2]
  direct activation of the PPARgamma-LBD / recruiting of the LXXLL peptide: did not result in any direct activation of the PPARgamma-LBD
[3]
  activation of the PPARgamma pathway in the PPARgamma reporter cell line: only at higher test concentrations and to a lesser extent
[3]; test substance 1.00E−04 M
  MW (luciferase activity): 11322 RLU
[3]; test substance 1.00E−05 M
  MW (luciferase activity): 709 RLU
[3]; test substance 1.00E−06 M
  MW (luciferase activity): 589 RLU
[3]; test substance 3.00E−05 M
  MW (luciferase activity): 3271 RLU
[3]; test substance 3.00E−06 M
  MW (luciferase activity): 672 RLU
[3]; test substance 3.00E−07 M
  MW (luciferase activity): 874 RLU
[4]; test substance 1.00E−04 M
  MW (SPA signal, bound 3H-rosiglitazone): 611
[4]; test substance 1.00E−05 M
  MW (SPA signal, bound 3H-rosiglitazone): 787
[4]; test substance 1.00E−06 M
  MW (SPA signal, bound 3H-rosiglitazone): 901
[4]; test substance 1.00E−07 M
  MW (SPA signal, bound 3H-rosiglitazone): 915
[4]; test substance 3.00E−05 M
  MW (SPA signal, bound 3H-rosiglitazone): 784
[4]; test substance 3.00E−06 M
  MW (SPA signal, bound 3H-rosiglitazone): 814
[4]; test substance 3.00E−07 M
  MW (SPA signal, bound 3H-rosiglitazone): 835
[4]
  displacement of the radioactive rosiglitazone from the binding pocket: no concentration-dependent displacement

## CCCc1nc2c(C)cc(-c3nc4ccccc4n3C)cc2n1Cc1ccc(-c2ccccc2C(=O)[O-])cc1.[Na+] [telmisartan sodium salt]
[1]; Tablet 3, first batch, 900 ml 0.1 M phosphate buffer pH 7.5, 75 rpm
  dissolved after 30 minutes: 92±1.5%
[1]; Tablet 3, second batch, 900 ml 0.1 M phosphate buffer pH 7.5, 75 rpm
  dissolved after 30 minutes: 96±1.8%
[1]; Tablet 3, third batch, 900 ml 0.1 M phosphate buffer pH 7.5, 75 rpm
  dissolved after 30 minutes: 100±1.0%

## CCCc1nc2c(C)cc(-c3nc4ccccc4n3C)cc2n1Cc1ccc(-c2ccccc2C(=O)O)cc1 [telmisartan, 4′-[2-n-propyl-4-methyl-6-(1-methylbenzimidazol-2-yl)-benzimidazol-1-ylmethyl]-biphenyl-2-carboxylic acid]
[2]
  direct activation of the PPARgamma-LBD / recruiting of the LXXLL peptide: did not result in any direct activation of the PPARgamma-LBD
[2]; test substance 1.00E−05 M
  MW (AlphaScreen signal): 847
[2]; test substance 1.00E−06 M
  MW (AlphaScreen signal): 677
[2]; test substance 1.00E−07 M
  MW (AlphaScreen signal): 606
[2]; test substance 3.00E−06 M
  MW (AlphaScreen signal): 720
[2]; test substance 3.00E−07 M
  MW (AlphaScreen signal): 644
[2]; test substance 3.00E−08 M
  MW (AlphaScreen signal): 642
[2]; test substance 5.00E−05 M
  MW (AlphaScreen signal): 1111
[3]
  activation of the PPARgamma pathway in the PPARgamma reporter cell line: particularly potent activation
[3]; test substance 1.00E−05 M
  MW (luciferase activity): 61397 RLU
[3]; test substance 1.00E−06 M
  MW (luciferase activity): 2859 RLU
[3]; test substance 3.00E−05 M
  MW (luciferase activity): 58790 RLU
[3]; test substance 3.00E−06 M
  MW (luciferase activity): 24498 RLU
[3]; test substance 3.00E−07 M
  MW (luciferase activity): 760 RLU
[4]; test substance 1.00E−04 M
  MW (SPA signal, bound 3H-rosiglitazone): 545
[4]; test substance 1.00E−05 M
  MW (SPA signal, bound 3H-rosiglitazone): 703
[4]; test substance 1.00E−06 M
  MW (SPA signal, bound 3H-rosiglitazone): 818
[4]; test substance 1.00E−07 M
  MW (SPA signal, bound 3H-rosiglitazone): 837
[4]; test substance 3.00E−05 M
  MW (SPA signal, bound 3H-rosiglitazone): 691
[4]; test substance 3.00E−06 M
  MW (SPA signal, bound 3H-rosiglitazone): 818
[4]; test substance 3.00E−07 M
  MW (SPA signal, bound 3H-rosiglitazone): 802
[4]
  displacement of the radioactive rosiglitazone from the binding pocket: no concentration-dependent displacement
